{
  "source": "patent US11293019B2",
  "about": "“Chimeric genome engineering molecules and methods” (GFLAS Life Sciences, Inc., priority 2017, dated 2022)",
  "key": {"[1]": {"test_system": "human DHCR7", "experiment": "Genome editing after zinc sulfate treatment, HEK293, T7E1 assay", "format": "cell-based", "details": "for % indels: +RNP", "experimental": "(§1) The concentrations of 80 mM 160 mM of zinc sulfate were treated in HEK293 with Cas9 variants. HEK293 cells were harvested at 12 h, 24 h, and 48 h after zinc sulfate treatment. In terms of RNP treatment, HEK293 cells were harvested at 24 h, 36 h, and 60 h.\nas §1\nCell culture. HEK 293 cells were maintained in DMEM media with 10% Fetal bovine serum FBS and P/S, at 37° C. in CO2 incubator. 150,000 cells were transferred to a 24 well plate in […] of the growth medium a day before transfection.\nTransfection. For Cas9 variants transfection to the cells, purified each Cas9 variant protein was added to up to […] of Opti-MEM serum reduced medium in a micro tube, followed by addition of 120 ng guide RNA. The molar ratio of the guide RNA to Cas9 protein was kept nearly at 1.2:1 ratio(1). The mixture, then, mixed well by gentle tapping and incubated for 10 min at RT. In a separate tube. […] of Lipofectamin 3000 transfection reagent was added to […] of Opti-MEM and […] of the diluted transfection reagent was added to the guide RNA and Cas9 protein mixture, followed by incubation for 15 min at RT and […] mixture was added to the cells.\nGenomic DNA extraction. […] Briefly cells were washed with PBS once and treated with T.E., followed by incubation at 37, for 5 min. 1.2 ml of growth media were added to cells to harvest cell and then, spin downed at RT, 250×g, for 5 min.\nAmplification of genomic loci of human DHCR7. For amplification of genomic loci of human DHCR7, two different PCR primer pairs were used. […] Genomic DNA was amplified using specific primers and cleaned up using Wizard® SV gel and PCR clean-Up system. 200 ng PCR cleaned-up amplified DNA was added in a PCR-tube, followed by addition of […] of NEB buffer 2 with up to 9 ml of distilled water (D/W). The mixture was then re-annealed in a PCR machine using following condition: 98° C. for 5 min for denaturation; cooling down to 85° C. at −2° C./sec, in turn, to 25° C. at −0.1/sec and kept at 4° C., in order to prevent denaturation of heteroduplex formation of the amplified DNA. […] of T7E1 endonuclease was added to the mixture and incubated at 37° C. for 60 min.\nImage Analysis. For analysis of gene modification, 2% gel was used image was obtained with and Alphaimager 2200 image analysis software was used for analysis. % indel was computed with following equation: 1−((1-fraction cleaved) ½)(2)."}, "[2]": {"test_system": "HEK293 cells", "method": "1.0×10^5 cells were in the 24 well plate.\nCell culture. HEK 293 cells were maintained in DMEM media with 10% Fetal bovine serum FBS and P/S, at 37° C. in CO2 incubator. 150,000 cells were transferred to a 24 well plate in 50 ml of the growth medium a day before transfection."}, "[3]": {"test_system": "PCR dsDNA product", "experiment": "SpCas9 activity with 1 mM ZnSO4 / Mg2+ deficiency at different pH", "format": "biochemical", "details": "1 mM ZnSO4, range of pH values", "method": "For DNA (50 ng) NbFTa13_4 PCR product, 3 μl (150 ng) was used; for SpCas9-BPNLS (3.3 μg) 1/10 dilution (333 ng), 1.5 μl (0.5 μg) was used; for gRNA (1.5 μg) (NbFTa13_3/4-2), 1/10 dilution (150 ng), 3.5 μg (500 ng) was used; for pH (+1 mM ZnSO4, 2× cutsmart), 10 μl was used; for DW, to 20 μl was used.\nFor PCR dsDNA product, 150 ng was used; for SpCas9:BPNLS, 1 μg was used; for gRNA, 500 ng was used; for pH titration (100 mM NaCal, 50 mM Tris-HCl+1 mM ZnSO4), 10 ul was used, for DW, up to 20 μl was used.\nActivity of SpCas9 and SpCas9-mungbean nuclease chimeric polypeptide was tested in the presence of 1 mM ZnSO4 at a range of pHs."}, "[4]": {"test_system": "PCR product (901 bp SpyCas9; 1,431 bp FnCpf1)", "experiment": "Inactivation of SpyCas9 and FnCpf1 by stop solution / 1 mM ZnSO4, in vitro cleavage time course", "format": "biochemical"}, "[5]": {"test_system": "HEK293 cells and plant protoplasts", "experiment": "Summary of knock-out / knock-in performance (HEK293 cells and plant protoplasts)", "format": "cell-based", "details": "in vitro and in vivo HEK293 cells", "description": "The apparent rates of mutations after the action of CRISPR genome editing tools are relatively low in vivo due to outperformance of error-free repair mechanisms. To enhance both the rate of indel mutation and HR recombination, genome editing tools were constructed by translational fusion of DNA modifying enzymes (DME), DNA binding protein (DBP), or terminal deoxyribonucleotidyl transferase (TdT) at either upstream or downstream of CRISPR genome editing enzymes. In one embodiment, a variant irreversibly deleted the DNA at the CRISPR enzyme-dependent double strand break sites in 5′->3′ direction, and the resulting modified ends with 3′-OH overhang can better serve HR repairs in presence of repair template. Disclosed herein are constructs that display functional enhancement of the CRISPR-Cas enzymes. […] Fifth, off-target effects in Cas9-RecJ embodied the similar efficiency to Cas9 off-targeting in whole genome sequencing and targeted deep sequencing. […] FIG. 74-FIG. 125 show said new genome editing fusion constructs, knock-out and knock-in efficiency and percent change in efficiency over a control.\nThe apparent rates of mutations after the action of CRISPR genome editing tools are relatively low in vivo due to outperformance of error-free repair mechanisms. […]"}},
  "note": "Like-named read-outs stand apart in the source and are kept apart here.",
  "data": [
    {"smiles": "O=S(=O)([O-])[O-].[Zn+2]", "note": "[ZnSO4, zinc sulfate]", "values": [
      {"measurement": "% indels", "setting": "[1]; 80 ZnSO4 (mM) at 12 h, harvest 24 h", "value": 2.9, "unit": "%"},
      {"measurement": "% indels", "setting": "[1]; 80 ZnSO4 (mM) at 12 h, harvest 60 h", "value": 5.4, "unit": "%"},
      {"measurement": "% indels", "setting": "[1]; 160 ZnSO4 (mM) at 12 h, harvest 24 h", "value": 1.8, "unit": "%"},
      {"measurement": "% indels", "setting": "[1]; 160 ZnSO4 (mM) at 12 h, harvest 36 h", "value": 2.7, "unit": "%"},
      {"measurement": "% indels", "setting": "[1]; 160 ZnSO4 (mM) at 12 h, harvest 60 h", "value": 5.8, "unit": "%"},
      {"measurement": "modified dsDNA detected via T7E1 assay", "setting": "[1]; 48 h hpt with RNP, 80 μM ZnSO4 at 24 hpt, direct", "value": 12.62, "unit": "%"},
      {"measurement": "modified dsDNA detected via T7E1 assay", "setting": "[1]; 48 h hpt with RNP, 80 μM ZnSO4 at 24 hpt, media exchange", "value": 9.86, "unit": "%"},
      {"measurement": "modified dsDNA detected via T7E1 assay", "setting": "[1]; 48 h hpt with RNP, 160 μM ZnSO4 at 24 hpt, direct", "value": 3.68, "unit": "%"},
      {"measurement": "modified dsDNA detected via T7E1 assay", "setting": "[1]; 48 h hpt with RNP, 160 μM ZnSO4 at 24 hpt, media exchange", "value": 4.96, "unit": "%"},
      {"measurement": "modified dsDNA detected via T7E1 assay", "setting": "[1]; 72 h hpt with RNP, 80 μM ZnSO4 at 24 hpt, direct", "value": 2.8, "unit": "%"},
      {"measurement": "modified dsDNA detected via T7E1 assay", "setting": "[1]; 72 h hpt with RNP, 80 μM ZnSO4 at 24 hpt, media exchange", "value": 9.32, "unit": "%"},
      {"measurement": "modified dsDNA detected via T7E1 assay", "setting": "[1]; 72 h hpt with RNP, 160 μM ZnSO4 at 24 hpt, direct", "value": 1.87, "unit": "%"},
      {"measurement": "modified dsDNA detected via T7E1 assay", "setting": "[1]; 72 h hpt with RNP, 160 μM ZnSO4 at 24 hpt, media exchange", "value": 1.41, "unit": "%"},
      {"measurement": "genome editing efficacy after zinc sulfate treatment", "setting": "[1]; HEK293 with Cas9 variants", "value": "reduced"},
      {"measurement": "HEK293 cell survival", "setting": "[2]; 0 to 120 mM zinc sulfate", "value": "allowed HEK293 cell to survive"},
      {"measurement": "HEK293 cell survival", "setting": "[2]; 160 mM and 200 mM zinc sulfate", "value": "did not allow HEK293 live well without toxicity effect"},
      {"measurement": "abolished Cas9 activity", "setting": "[3]", "value": "up to 90%"},
      {"measurement": "uncut dsDNAs not digested any more after ZnSO4 treatment", "setting": "[4]", "value": 65, "unit": "%"},
      {"measurement": "quenching of Cas9 activity", "setting": "[5]", "value": "effectively quenched Cas9 activity"}
    ]}
  ]
}
